Experimental data reported in ChEMBL document CHEMBL3399954, “Design and synthesis of new tricyclic indoles as potent modulators of the S1P1 receptor” (Bioorg Med Chem Lett, 2015).

Assays:
[1] = Half life in mouse liver microsomes; assay type: ADME
[2] = Half life in rat liver microsomes; assay type: ADME
[3] = Half life in human liver microsomes; assay type: ADME
[4] = Clearance in Sprague-Dawley rat at 1 mg/kg, iv and 1 mg/kg, po; assay type: ADME, organism-based; details: in vivo
[5] = Volume of distribution at steady state in Sprague-Dawley rat at 1 mg/kg, iv and 1 mg/kg, po; assay type: ADME, organism-based; details: in vivo, read-out: Vdss
[6] = AUClast in Sprague-Dawley rat at 1 mg/kg, iv and 1 mg/kg, po; assay type: ADME, organism-based; details: plasma
[7] = Half life in Sprague-Dawley rat at 1 mg/kg, iv; assay type: ADME, organism-based; parameters: dose 1 mg/kg, route intravenous; details: in vivo
[8] = Oral bioavailability in Sprague-Dawley rat at 1 mg/kg; assay type: ADME, organism-based; details: in vivo

## O=C(O)CC1NCCc2c1[nH]c1ccc(OCc3ccc(C4CCCC4)c(C(F)(F)F)c3)cc21 (single isomer, unassigned)
[1]
  half-life: > 1 h
[2]
  half-life: > 1 h
[3]
  half-life: > 1 h
[4]
  clearance: 10.7 mL/min/kg
[5]
  Vd: 6.71 L/kg
[6]
  AUC(0-t): 1320 ng·h/mL
[7]
  half-life: 9.49 h
[8]
  bioavailability: < 2%
